In patent US20230122249A1, “1H-PYRAZOLO[4,3-d]PYRIMIDINE COMPOUNDS AS TOLL-LIKE RECEPTOR 7 (TLR7) AGONISTS” (BRISTOL-MYERS SQUIBB COMPANY, priority 2020, published 2023) one finds EC50 data, which are given here for 41 molecules.

The test system of assay [1] is CD69 in human whole blood. The assay can be described thus: Induction of CD69 in human whole blood (hWB). Format: cell-based. Particulars: heparinized human whole blood, 17 h, CD69 surface staining; 100% set to 1 uM resiquimod; average where assay repeated. The method, boiled down:
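hWB stimulated with compound at 1 uM final (1 mM stock), 37° C o/n (17 hrs). Surface CD69-PE staining with CD14/CD19 gating, fix/lysis, then flow cytometry read. IC50 curves with 100% set to 1 uM resiquimod.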

The next assay has as its target T1, human TLR7 (Homo sapiens, UniProt Q9NYK1).
T1 construct: host or cells: HEK-Blue TLR7 cells (engineered human embryonic kidney cells)
T1 sequence (Q9NYK1 27-1049): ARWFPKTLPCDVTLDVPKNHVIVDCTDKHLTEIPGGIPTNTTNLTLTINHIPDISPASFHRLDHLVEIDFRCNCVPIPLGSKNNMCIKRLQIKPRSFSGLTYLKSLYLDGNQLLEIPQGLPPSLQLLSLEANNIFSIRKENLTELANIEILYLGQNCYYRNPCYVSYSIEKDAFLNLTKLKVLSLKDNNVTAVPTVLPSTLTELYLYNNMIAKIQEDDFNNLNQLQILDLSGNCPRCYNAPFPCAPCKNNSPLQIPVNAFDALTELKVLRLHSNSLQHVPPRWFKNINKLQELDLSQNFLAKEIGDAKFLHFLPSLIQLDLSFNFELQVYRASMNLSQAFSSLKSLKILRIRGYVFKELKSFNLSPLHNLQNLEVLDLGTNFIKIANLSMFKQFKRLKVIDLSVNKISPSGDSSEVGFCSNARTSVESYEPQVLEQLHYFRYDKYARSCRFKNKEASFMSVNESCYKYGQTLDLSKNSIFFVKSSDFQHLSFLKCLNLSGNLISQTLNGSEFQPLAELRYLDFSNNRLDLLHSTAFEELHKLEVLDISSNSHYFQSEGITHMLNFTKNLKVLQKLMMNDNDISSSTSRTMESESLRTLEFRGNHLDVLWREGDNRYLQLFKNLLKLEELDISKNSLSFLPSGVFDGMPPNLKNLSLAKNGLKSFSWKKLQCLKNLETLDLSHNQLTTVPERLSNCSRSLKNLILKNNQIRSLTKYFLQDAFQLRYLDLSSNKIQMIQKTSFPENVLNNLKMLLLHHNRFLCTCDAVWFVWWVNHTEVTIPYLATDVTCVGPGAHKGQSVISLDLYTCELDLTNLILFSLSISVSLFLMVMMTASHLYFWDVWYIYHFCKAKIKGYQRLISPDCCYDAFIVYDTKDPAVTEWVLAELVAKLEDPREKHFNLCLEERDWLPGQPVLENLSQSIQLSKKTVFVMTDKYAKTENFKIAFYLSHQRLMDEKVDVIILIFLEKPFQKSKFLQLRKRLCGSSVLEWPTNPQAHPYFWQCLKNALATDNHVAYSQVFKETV
The assay can be described thus: Human TLR7 agonist activity (hTLR7 reporter) assay in HEK-Blue TLR7 cells, SEAP readout. In kind it is cell-based. Particulars: 18 h treatment, average where assay repeated. The method, boiled down:
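HEK-Blue TLR7 cells (15,000/well) treated with compound for 18 h at 37 °C, 5% CO2. Secreted SEAP measured with Quanti-Blue, 30 min, OD 620 nm. EC50 taken as concentration giving half-maximal response between baseline and maximum.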

One may read the EC50 as the concentration needed to bring the measured effect to its halfway point. Low readings indicate higher potency in that assay, high ones lower potency in that assay. On to `CCC[C@@H](CCO)Nc1nc(N)nc2cnn(Cc3ccc(C(=O)N4CC5(CN(C)C5)C4)cc3OC)c12` [Compound 206], for which the EC50 in assay [1] stood at 36.3 nM; at human TLR7 it was 93.3 nM.
Regarding `COc1cc(C(=O)NC2CCN(C)CC2)ccc1Cn1nc(C)c2nc(N)nc(NCC3CC4(CC4)C3)c21` [Compound 207], the values for the EC50 (in assay [1]; on human TLR7) were 93.3 nM and 325 nM, respectively.
As for `COc1cc(C(=O)N2C[C@H]3C[C@@H]2CN3C)ccc1Cn1nc(C)c2nc(N)nc(NCC3CC4(CC4)C3)c21` [Compound 208], the EC50 is 45.8 nM in assay [1] and 119 nM at human TLR7.
As to `CCC[C@@H](CCO)Nc1nc(N)nc2cnn(Cc3ccc(C(=O)N4CC5(CNC5)C4)cc3OC)c12` [Compound 209], the EC50 in assay [1] came to 195 nM; on human TLR7, 242 nM.
On the same counts, the results for `COc1cc(CN2CC3(CN(C)C3)C2)ccc1Cn1ncc2nc(N)nc(NCc3cc(C)on3)c21` [Compound 211] are 33.7 nM and 640 nM.
Regarding `COc1cc(CN2CC3(C2)CN(C(C)C)C3)ccc1Cn1ncc2nc(N)nc(NCc3cc(C)on3)c21` [Compound 213], the half-maximal effective concentration (EC50) is 2.3 nM in assay [1] and 53.4 nM on human TLR7.
With `COc1cc(C(=O)N2CC3(CN(C)C3)C2)ccc1Cn1ncc2nc(N)nc(NCc3cc(C)on3)c21` [Compound 214], the EC50 came to 10.9 nM in assay [1] and 67.6 nM on human TLR7.
The matching figures for `CCC[C@@H](CCO)Nc1nc(N)nc2cnn(Cc3ccc(CN4CC5(CN(C)C5)C4)cc3OC)c12` [Compound 215]: 104 nM and 372 nM.
Take `CCC[C@@H](CCO)Nc1nc(N)nc2cnn(Cc3ccc(CN4CC5(C4)CN(C(C)C)C5)cc3OC)c12` [Compound 216]: the values for the 50% effective concentration (EC50) (in assay [1]; on human TLR7) were 1.3 nM and 7.3 nM, respectively.
As to `COc1cc(C(=O)N2C[C@H]3CN(C)C[C@H]3C2)ccc1Cn1nc(C)c2nc(N)nc(NCC3CC4(CC4)C3)c21` [Compound 217], the EC50 was determined as 10.8 nM in assay [1] and 115 nM at human TLR7.
Turning to `CN1C[C@@H]2CN(C(=O)c3ccc(Cn4ncc5nc(N)nc(NCC6CC7(CC7)C6)c54)c(OC(F)F)c3)C[C@@H]2C1` [Compound 218], the results for the EC50 (in assay [1]; at human TLR7) were 35 nM and 125 nM, respectively.
Consider `CN1C[C@H]2C[C@@H]1CN2C(=O)c1ccc(Cn2ncc3nc(N)nc(NCC4CC5(CC5)C4)c32)c(OC(F)F)c1` [Compound 219], for which the EC50 came out at 37.7 nM in assay [1] and 188 nM at human TLR7.
Regarding `CN1CCC(NC(=O)c2ccc(Cn3ncc4nc(N)nc(NCC5CC6(CC6)C5)c43)c(OC(F)F)c2)CC1` [Compound 220], the EC50 in assay [1] was 117 nM; on human TLR7 it was 1240 nM.
In the case of `CN1CCN(C(=O)c2ccc(Cn3ncc4nc(N)nc(NCC5CC6(CC6)C5)c43)c(OC(F)F)c2)CC1` [Compound 221], the EC50 in assay [1] came out at 50.6 nM; at human TLR7, 247 nM.
On the same counts, the results for `COc1cc(C(=O)N(C)CCN(C)C)ccc1Cn1ncc2nc(N)nc(NCC3CC4(CC4)C3)c21` [Compound 222] are 2.4 nM and 16 nM.
As to `Nc1nc(NCC2CC3(CC3)C2)c2c(cnn2Cc2ccc(C(=O)C3C[C@H]4CNC[C@H]4N3)cc2OC(F)F)n1` (stereo partly shown) [Compound 224], the results for the EC50 (in assay [1]; on human TLR7) were 520 nM and 1400 nM, respectively.
In the case of `COc1cc(C(=O)NC2CCN(CCO)CC2)ccc1Cn1ncc2nc(N)nc(NCC3CC4(CC4)C3)c21` [Compound 225], the concentration for a half-maximal effect (EC50) in assay [1] is 218 nM; at human TLR7, 1220 nM.
On the same counts, the results for `COc1cc(C(=O)N2CCC(S(C)(=O)=O)CC2)ccc1Cn1ncc2nc(N)nc(NCC3CC4(CC4)C3)c21` [Compound 226] are 555 nM and 425 nM.
As to `COc1cc(C(=O)N2CCS(=O)(=O)CC2)ccc1Cn1ncc2nc(N)nc(NCC3CC4(CC4)C3)c21` [Compound 227], the 50% effective concentration (EC50) came to 125 nM in assay [1] and 507 nM on human TLR7.
Consider `COc1cc(C(=O)N(CCO)CCO)ccc1Cn1ncc2nc(N)nc(NCC3CC4(CC4)C3)c21` [Compound 228], for which the EC50 in assay [1] came to 553 nM; at human TLR7 it was 894 nM.
The matching figures for `CCC[C@@H](CCO)Nc1nc(N)nc2cnn(Cc3ccc(C(=O)N4CC5(C4)CN(C4CCOCC4)C5)cc3OC)c12` [Compound 229]: 37.6 nM and 37.9 nM.
On the same counts, the results for `COc1cc(C(=O)NC2CCN(CC(=O)N(C)C)CC2)ccc1Cn1ncc2nc(N)nc(NCC3CC4(CC4)C3)c21` [Compound 230] are 197 nM and 276 nM.
The matching figures for `COc1cc(C(=O)NCCCN(C)C)ccc1Cn1ncc2nc(N)nc(NCC3CC4(CC4)C3)c21` [Compound 231]: 32.4 nM and 166 nM.
For `CCC[C@@H](CCO)Nc1nc(N)nc2cnn(Cc3ccc(C(=O)N4CC5(C4)CN(C(C)C)C5)cc3OC)c12` [Compound 232], the EC50 in assay [1] was found to be 32.9 nM; on human TLR7 it was 37.1 nM.
As for `CCC[C@@H](CCO)Nc1nc(N)nc2cnn(Cc3ccc(C(=O)N4CC5(CN(CCO)C5)C4)cc3OC)c12` [Compound 233], the EC50 in assay [1] amounted to 265 nM; at human TLR7, 412 nM.
For `COc1cc(C(=O)NCCN(C)C)ccc1Cn1ncc2nc(N)nc(NCC3CC4(CC4)C3)c21` [Compound 234], the EC50 in assay [1] was determined as 10.2 nM; on human TLR7, 93.2 nM.
Regarding `COc1cc(C(=O)N2CCN(C(C)=O)CC2)ccc1Cn1ncc2nc(N)nc(NCC3CC4(CC4)C3)c21` [Compound 235], the EC50 in assay [1] worked out at 223 nM; on human TLR7 it was 146 nM.
For `COc1cc(C(=O)N2CCN(S(C)(=O)=O)CC2)ccc1Cn1ncc2nc(N)nc(NCC3CC4(CC4)C3)c21` [Compound 236], the EC50 turned out to be 284 nM in assay [1] and 199 nM on human TLR7.
As for `COc1cc(C(=O)N2CCN(CC(F)(F)F)CC2)ccc1Cn1ncc2nc(N)nc(NCC3CC4(CC4)C3)c21` [Compound 237], the values for the EC50 (in assay [1]; on human TLR7) were 958 nM and 589 nM, respectively.
With `COc1cc(C(=O)NC2CCN(CC(C)(C)O)CC2)ccc1Cn1ncc2nc(N)nc(NCC3CC4(CC4)C3)c21` [Compound 238], the concentration for a half-maximal effect (EC50) in assay [1] stood at 35.2 nM; at human TLR7 it was 86 nM.
On to `COc1cc(C(=O)N2CCN(CC(C)(C)O)CC2)ccc1Cn1ncc2nc(N)nc(NCC3CC4(CC4)C3)c21` [Compound 239], for which the concentration giving a half-maximal response (EC50) was found to be 110 nM in assay [1] and 39 nM at human TLR7.
As for `COc1cc(C(=O)N2C[C@@H]3CN(S(C)(=O)=O)C[C@@H]3C2)ccc1Cn1ncc2nc(N)nc(NCC3CC4(CC4)C3)c21` [Compound 240], the EC50 was 845 nM in assay [1] and 291 nM at human TLR7.
Take `COc1cc(CN2CC3(C2)CN(C[C@H](C)O)C3)ccc1Cn1ncc2nc(N)nc(NCC3CC4(CC4)C3)c21` [Compound 241]: the EC50 in assay [1] is 14 nM; at human TLR7 it was 72.9 nM.
With `Nc1nc(NCC2CC3(CC3)C2)c2c(cnn2Cc2ccc(CN3CC4(CNC4)C3)cc2OC(F)F)n1` [Compound 242], the EC50 in assay [1] came to 588 nM; at human TLR7, 829 nM.
As for `Nc1nc(NCC2CC3(CC3)C2)c2c(cnn2Cc2ccc(CN3C[C@H]4CNC[C@H]4C3)cc2OC(F)F)n1` [Compound 243], the EC50 amounted to 193 nM in assay [1] and 283 nM on human TLR7.
As to `CCCCNc1nc(N)nc2c(C)nn(Cc3ccc(CN4CC5(C4)CN(C(C)=O)C5)cc3OC)c12` [Compound 244], the figures for the EC50 (in assay [1]; at human TLR7) were 31.1 nM and 138 nM, respectively.
For `CCC[C@@H](CCO)Nc1nc(N)nc2c(F)nn(Cc3ccc(CN4CC5(CNC5)C4)cc3OC)c12` [Compound 245], the results for the EC50 (in assay [1]; at human TLR7) were 1.2 nM and 40.6 nM, respectively.
On the same counts, the results for `CCC[C@@H](CCO)Nc1nc(N)nc2c(C)nn(Cc3ccc(CN4CC5(CNC5)C4)cc3OC)c12` [Compound 246] are 11.1 nM and 180 nM.
On to `COc1cc(C(=O)N2CC3(CN(C)C3)C2)ccc1Cn1ncc2nc(N)nc(NCc3noc(C)n3)c21` [Compound 247], for which the EC50 in assay [1] is 37.1 nM; at human TLR7, 197 nM.
For `COc1cc(C(=O)N2CC3(C2)CN(C(C)C)C3)ccc1Cn1ncc2nc(N)nc(NCc3noc(C)n3)c21` [Compound 248], the EC50 in assay [1] stood at 25.4 nM; on human TLR7, 73 nM.
As for `CCC[C@@H](CCO)Nc1nc(N)nc2cnn(Cc3ccc(CN4CC5(CN(CC)C5)C4)cc3OC)c12` [Compound 249], the EC50 in assay [1] is 1.6 nM; on human TLR7 it was 55.6 nM.
